According to PubChem BioAssay (NCI):
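How tested: cells in 96-well plates exposed to compound for 48 hours at five concentrations. TGI: concentration producing complete growth inhibition.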

Experiments:
Test in all cases: growth of human tumour cells (NCI), 48 h
OVCAR-8 ovarian = test system: OVCAR-8 ovarian
HCC-2998 colon = test system: HCC-2998 colon
KM20L2 colon = test system: KM20L2 colon
M14 melanoma = test system: M14 melanoma
CAKI-1 renal = test system: CAKI-1 renal
HOP-62 NSCLC = test system: HOP-62 NSCLC
COLO 205 colon = test system: COLO 205 colon
OVCAR-3 ovarian = test system: OVCAR-3 ovarian
NCI-H226 lung = test system: NCI-H226 lung
UACC-62 melanoma = test system: UACC-62 melanoma
KM12 colon = test system: KM12 colon
MALME-3M melanoma = test system: MALME-3M melanoma
EKVX NSCLC = test system: EKVX NSCLC
LOX IMVI melanoma = test system: LOX IMVI melanoma
TK-10 renal = test system: TK-10 renal
U251 CNS = test system: U251 CNS
XF 498 CNS = test system: XF 498 CNS
RXF-631 renal = test system: RXF-631 renal
NCI-H23 lung = test system: NCI-H23 lung
MOLT-4 leukemia = test system: MOLT-4 leukemia
HL-60(TB) leukemia = test system: HL-60(TB) leukemia
LXFL 529 NSCLC = test system: LXFL 529 NSCLC
SK-MEL-5 melanoma = test system: SK-MEL-5 melanoma
SN12C renal = test system: SN12C renal
K-562 leukemia = test system: K-562 leukemia
IGROV1 ovarian = test system: IGROV1 ovarian
SNB-75 CNS = test system: SNB-75 CNS
RPMI-8226 leukemia = test system: RPMI-8226 leukemia
SK-MEL-2 melanoma = test system: SK-MEL-2 melanoma
SNB-78 CNS = test system: SNB-78 CNS
HT29 colon = test system: HT29 colon
SNB-19 CNS = test system: SNB-19 CNS
SW-620 colon = test system: SW-620 colon
HCT-15 colon = test system: HCT-15 colon
RXF 393 renal = test system: RXF 393 renal
SK-OV-3 ovarian = test system: SK-OV-3 ovarian
NCI-H522 lung = test system: NCI-H522 lung
A498 renal = test system: A498 renal
UO-31 renal = test system: UO-31 renal
M19-MEL melanoma = test system: M19-MEL melanoma
SF-295 CNS = test system: SF-295 CNS
CCRF-CEM leukemia = test system: CCRF-CEM leukemia
SF-268 CNS = test system: SF-268 CNS
786-0 renal = test system: 786-0 renal
SK-MEL-28 melanoma = test system: SK-MEL-28 melanoma
A549 NSCLC = test system: A549 NSCLC
SF-539 CNS = test system: SF-539 CNS
DLD-1 colon = test system: DLD-1 colon
UACC-257 melanoma = test system: UACC-257 melanoma
DMS 114 small cell lung = test system: DMS 114 small cell lung
DMS 273 small cell lung = test system: DMS 273 small cell lung
NCI-H460 lung = test system: NCI-H460 lung
HS 578T breast = test system: HS 578T breast
MDA-MB-231 breast = test system: MDA-MB-231 breast
OVCAR-4 ovarian = test system: OVCAR-4 ovarian
SR leukemia = test system: SR leukemia
HOP-18 NSCLC = test system: HOP-18 NSCLC
MDA-N = test system: MDA-N
PC-3 prostate = test system: PC-3 prostate
T-47D breast = test system: T-47D breast
HCT-116 colon = test system: HCT-116 colon
MCF7 breast = test system: MCF7 breast
BT-549 breast = test system: BT-549 breast
DU-145 prostate = test system: DU-145 prostate
HOP-92 NSCLC = test system: HOP-92 NSCLC
MDA-MB-435 = test system: MDA-MB-435
OVCAR-5 ovarian = test system: OVCAR-5 ovarian
NCI/ADR-RES ovarian = test system: NCI/ADR-RES ovarian

Measured: TGI

O=C(NCCO)c1ccc([N+](=O)[O-])cc1
not listed: HS 578T breast | MDA-MB-231 breast | OVCAR-4 ovarian | SR leukemia | HOP-18 NSCLC | MDA-N | PC-3 prostate | T-47D breast | HCT-116 colon | MCF7 breast | BT-549 breast | DU-145 prostate | HOP-92 NSCLC | MDA-MB-435 | OVCAR-5 ovarian | NCI/ADR-RES ovarian
> 100 µM: all other assays above

S=c1[nH]nc(Cc2ccccc2)c(=S)[nH]1
> 94.1 µM: TK-10 renal
> 31.6 µM: EKVX NSCLC
> 50.1 µM: UACC-62 melanoma
> 93.7 µM: NCI-H460 lung
89.1 µM: SNB-75 CNS
> 76.9 µM: SK-MEL-2 melanoma
88.2 µM: PC-3 prostate
75.4 µM: T-47D breast
99.3 µM: LOX IMVI melanoma
> 71.8 µM: HCC-2998 colon
96.9 µM: BT-549 breast
> 73.1 µM: HOP-92 NSCLC
> 81.8 µM: A498 renal
> 82.2 µM: SK-MEL-5 melanoma
> 21.3 µM: SF-268 CNS
not listed: KM20L2 colon | DMS 114 small cell lung
> 100 µM: all other assays above
